Converted amounts (≈) assume the structure as drawn.
How the values were obtained:
Test in all cases: MIC by agar dilution method according to DIN 58 940
P. acnes = type: cell-based, Propionibacterium acnes; conditions: Cutibacterium acnes, ATCC11828; P. acnes ATCC 11828; Mueller-Hinton Agar, 36° C., read after 48 h
Procedure: (§1) The antimicrobial activity was assessed by determination of the Minimum Inhibitory Concentration (MIC) using the agar dilution method according to DIN 58 940 at the Labor L+SAG, D−Bad Bocklet-Grossenbrach.
(§2) Culture plates with a diameter of 5.5 cm were prepared with fresh, kept liquid (50° C.) Mueller-Hinton Agar (double concentrated, Merck 1.05437)/aqua purificata comprising p-Hydroxybenzylamine (pHBA) in the concentrations indicated in Table 1 according to standard methods. After solidifying and drying (about 1 h at 36° C.), the culture plates were inoculated with 1 μl of a suspension of the respective microorganism with the colony forming unit as outlined in table 1. The inoculated plates were then incubated at 36° C. The MIC's (i.e. the concentrations where still no growth could be observed) were determined after 18 h for E. coli, P. aeruginosa and S. aureus; after 48 h for P. acnes and after 78 h for A. brasiliensis and C. albicans. Per sample two culture plates were prepared. As control incubated and non-incubated cultures were used.
The suspensions of the microorganism's No. 1-4 were prepared by homogeneous suspension of 3-5 colonies of the same morphology in physiological NaCl-solution. The suspensions were adjusted such, that the haze corresponded to the Mac Farland standard 1.0 (about 3.0*10^8 KBE*/ml). […] The colony count was determined using a spiral plater system (see table 2).

A. brasiliensis = type: cell-based; conditions: Aspergillus brasiliensis, ATCC16404; A. brasiliensis ATCC 16404; Mueller-Hinton Agar, 36° C., read after 78 h
Procedure: as §1, §2
(§3) The suspensions of the microorganism's No. 1-4 were prepared by homogeneous suspension of 3-5 colonies of the same morphology in physiological NaCl-solution. The suspensions were adjusted such, that the haze corresponded to the Mac Farland standard 1.0 (about 3.0*10^8 KBE*/ml). For the preparation of the suspensions of the microorganisms 5 and 6, the microorganisms have been taken with a sterile swab and diluted in an amount of physiological NaCl solution such, that the haze corresponded to the Mac Farland standard 1.0. Afterwards the suspensions of the microorganisms 1 and 3-6 have been further diluted with physiological NaCl-solution in a ratio of 1:10. The colony count was determined using a spiral plater system (see table 2).

C. albicans = type: cell-based; conditions: Candida albicans, ATCC10231; C. albicans ATCC 10231; Mueller-Hinton Agar, 36° C., read after 78 h
Procedure: as §1, §2, §3

E. coli = type: cell-based; conditions: Escherichia coli, ATCC8739; E. coli ATCC 8739; Mueller-Hinton Agar, 36° C., read after 18 h
Procedure: as §1, §2, §3

P. aeruginosa = type: cell-based; conditions: Pseudomonas aeruginosa, ATCC9027; P. aeruginosa ATCC 9027; Mueller-Hinton Agar, 36° C., read after 18 h
Procedure: as §1, §2, §3

S. aureus = type: cell-based; conditions: Staphylococcus aureus, ATCC6538; S. aureus ATCC 6538; Mueller-Hinton Agar, 36° C., read after 18 h
Procedure: as §1, §2, §3

## NCc1ccc(O)cc1 [pHBA, p-Hydroxybenzylamine]
P. acnes
  MIC: 7900 µg/mL (≈ 64.1 mM)
A. brasiliensis
  MIC: 5270 µg/mL (≈ 42.8 mM)
C. albicans
  MIC: 5270 µg/mL (≈ 42.8 mM)
E. coli
  MIC: 5270 µg/mL (≈ 42.8 mM)
P. aeruginosa
  MIC: 5270 µg/mL (≈ 42.8 mM)
S. aureus
  MIC: 5270 µg/mL (≈ 42.8 mM)
